Here are results for 36 molecules from US8445490B2, “Compounds for the treatment of hepatitis C” (priority 2009, dated 2013).

As usually defined, the EC50 is the concentration needed to bring the measured effect to its halfway point.

Each structure is given as a SMILES string. Where two headings read alike, the source gives them in different places.

For this assay, the system named is HCV pseudoparticles, genotype 1a (H77C) E1 and E2 envelope. Kind of assay: microbe, parasite or virus in culture. To be noted: Hepatitis C virus, Huh-7, 48 h, HCV pseudoparticles 1a (H77C), Huh7 cells, luciferase 2 days after infection. The class given is cell-based, HCV genotype 1a (H77C isolate).
Where [1] appears, read: read-out: EC50 (nM) 1a (H77C), Table 1a, class.
Setting [2] is: read-out: EC50 (nM) 1a (H77C), Table 1a.
The mark [3] stands for this setting: read-out: EC50 (nM) 1a (H77C), Table 1b, class.
Where [4] appears, read: read-out: EC50 (nM) 1a (H77C), Table 1b.

For `O=C1NCCNCCNc2nc(nc(OCC(F)(F)F)n2)Nc2ccc1cc2` [Example 0001], the 50% effective concentration (EC50) runs as follows: under setting [1], 1000 to 5000 nM; under setting [2], 4200 nM.
Consider `O=C1NCCCCCCCCNc2nc(nc(OCC(F)(F)F)n2)Nc2ccc1cc2` [Example 0002], for which, under setting [1], the EC50 is 0.1 to 100 nM.
As to `O=C1NCCCCCCCCCCNc2nc(nc(OCC(F)(F)F)n2)Nc2ccc1cc2` [Example 0003], the concentration giving a half-maximal response (EC50) reads like this: under setting [1], 100 to 1000 nM; under setting [2], 101 nM.
The like results for `O=C1NCCCOCCCCOCCCNc2nc(nc(OCC(F)(F)F)n2)Nc2ccc1cc2` [Example 0004] were, in that order, 0.1 to 100 nM and 48.4 nM.
In the case of `CC(=O)N1CCNC(=O)c2ccc(cc2)Nc2nc(nc(OCC(F)(F)F)n2)NCC1` [Example 0005], the EC50 under setting [1] fell in the range of 1000 to 5000 nM.
On the same count and under the same terms, in the case of `O=C1NCCCCNC(=O)C2(CC2)Nc2nc(nc(OCC(F)(F)F)n2)Nc2ccc1cc2` [Example 0006] it was 1000 to 5000 nM.
For `O=C1N[C@H]2CNC[C@@H]2C(=O)NCCCCCCOc2ccc(cc2)CNc2nc(nc(OCC(F)(F)F)n2)Nc2ccc1cc2` [Example 0007], the 50% effective concentration (EC50) is 0.1 to 100 nM under setting [1] and 8.31 nM under setting [2].
For the molecule `CN(C)C(N1C[C@@H]2NC(=O)c3ccc(cc3)Nc3nc(nc(OCC(F)(F)F)n3)NCc3ccc(cc3)OCCCCCCNC(=O)[C@H]2C1)=[N+](C)C` [Example 0008], the EC50 under setting [1] was 0.1 to 100 nM.
Same read-out and setting: in the case of `CC(C)(C)OC(=O)N1CCN(CC2CNC(=O)c3ccc(cc3)Nc3nc(nc(OCC(F)(F)F)n3)NCc3ccc(cc3)OC/C=C/CO2)CC1` (stereo not shown) [Example 0009] it was 100 to 1000 nM; in that of `O=C1NCC(CN2CCNCC2)OC/C=C/COc2ccc(cc2)CNc2nc(nc(OCC(F)(F)F)n2)Nc2ccc1cc2` (stereo not shown) [Example 0010], 1000 to 5000 nM.
As to `O=C1NC(C2CCCNC2)C(=O)NCCCCCCOc2ccc(cc2)CNc2nc(nc(OCC(F)(F)F)n2)Nc2ccc1cc2` (stereo not shown) [Example 0011], the EC50 reads like this: under setting [1], 0.1 to 100 nM; under setting [2], 62.8 nM.
With `O=C1NCCCCCCCCCCCCNC(=O)c2ccc(cc2)Nc2nc(nc(OCC(F)(F)F)n2)NCc2ccc1cc2` [Example 0034], under setting [1], the EC50 lay within 1000 to 5000 nM.
Same read-out and setting: in the case of `O=C1NCCCOCCOCCOCCCNC(=O)c2ccc(cc2)Nc2nc(nc(OCC(F)(F)F)n2)NCc2ccc1cc2` [Example 0036] it was 1000 to 5000 nM; in that of `O=C1NCCCCCCCCCNC(=O)c2ccc(cc2)Nc2nc(nc(OCC(F)(F)F)n2)NCc2ccc1cc2` [Example 0037], 100 to 1000 nM.
As for `O=C1NCCCCCCCCCCCNC(=O)c2ccc(cc2)Nc2nc(nc(OCC(F)(F)F)n2)NCc2ccc1cc2` [Example 0038], the EC50 under setting [1] fell in the range of 100 to 1000 nM and the EC50 under setting [2] turned out to be 840 nM.
On the same counts, the results for `O=C1CCCCCCCCC(=O)NCc2ccc(cc2)Nc2nc(nc(OCC(F)(F)F)n2)NCc2ccc(cc2)CN1` [Example 0064] are 100 to 1000 nM and 407 nM.
On the same counts, the results for `O=C1NS(=O)(=O)C/C=C/CCOc2ccc(cc2)CNc2nc(nc(OCC(F)(F)F)n2)Nc2ccc1cc2` [Example 3004] are 1000 to 5000 nM and 2940 nM.
For `O=C1NS(=O)(=O)C/C=C/CCCCOc2ccc(cc2)CNc2nc(nc(OCC(F)(F)F)n2)Nc2ccc1cc2` [Example 3006], the EC50 under setting [1] was 1000 to 5000 nM.
In the case of `O=C1CCNC(=O)c2ccc(cc2)Nc2nc(nc(OCC(F)(F)F)n2)NCc2ccc(cc2)OC/C=C/CS(=O)(=O)N1` [Example 3008], under setting [1], the EC50 is 100 to 1000 nM.
The same measure, in the same setting: the value for `O=C1CCNC(=O)c2ccc(cc2)Nc2nc(nc(OCC(F)(F)F)n2)NCc2ccc(cc2)OC/C=C\CS(=O)(=O)N1` [Example 3009] was 100 to 1000 nM.
With `O=C1NCCCNCCCOc2ccc(cc2)C2(CC2)Nc2nc(nc(OCC(F)(F)F)n2)Nc2ccc1cc2` [Example 5001], the EC50 under setting [3] is 0.1 to 100 nM.
Still for that read-out and setting: in the case of `CCOC(=O)N1CCCNC(=O)c2ccc(cc2)Nc2nc(nc(OCC(F)(F)F)n2)NC2(CC2)c2ccc(cc2)OCCC1` [Example 5002] it was 0.1 to 100 nM; in that of `CCC(=O)N1CCCCNC(=O)c2ccc(cc2)Nc2nc(nc(OCC(F)(F)F)n2)NC2(CC2)c2ccc(cc2)OCCC1` [Example 5005], 0.1 to 100 nM; in that of `CC(C)(C)NC(=O)N1CCCOc2ccc(cc2)CNc2nc(nc(OCC(F)(F)F)n2)Nc2ccc(cc2)C(=O)NCC1` [Example 6001], 0.1 to 100 nM.
`CC(C)NC(=O)N1CCCOc2ccc(cc2)CNc2nc(nc(OCC(F)(F)F)n2)Nc2ccc(cc2)C(=O)NCC1` [Example 6003]: under setting [3], the EC50 lay in the range of 0.1 to 100 nM.
For the molecule `CC(C)OC(=O)N1CCCOc2ccc(cc2)CNc2nc(nc(OCC(F)(F)F)n2)Nc2ccc(cc2)C(=O)NCC1` [Example 6004], under setting [3], the EC50 was 0.1 to 100 nM.
On to `CCOC(=O)N1CCCOc2ccc(cc2)CNc2nc(nc(OCC(F)(F)F)n2)Nc2ccc(cc2)C(=O)NCC1` [Example 6005], for which the EC50 under setting [3] was in the range of 0.1 to 100 nM.
For the molecule `CCC(=O)N1CCCOc2ccc(cc2)CNc2nc(nc(OCC(F)(F)F)n2)Nc2ccc(cc2)C(=O)NCC1` [Example 6007], under setting [3], the EC50 fell in the range of 0.1 to 100 nM.
Take `CC(C)C(=O)N1CCCOc2ccc(cc2)CNc2nc(nc(OCC(F)(F)F)n2)Nc2ccc(cc2)C(=O)NCC1` [Example 6008]: the EC50 under setting [3] was in the range of 0.1 to 100 nM.
On the same count and under the same terms, the value for `CC(C)(C)NC(=O)N1CCCNC(=O)c2ccc(cc2)Nc2nc(nc(OCC(F)(F)F)n2)NCc2ccc(cc2)OCCC1` [Example 6013] was 0.1 to 100 nM; that for `CCOC(=O)N1CCCOc2ccc(cc2)CNc2nc(nc(OCC(F)(F)F)n2)Nc2ccc(cc2)C(=O)NCC(C)(C)C1` [Example 6033] was 0.1 to 100 nM; that for `CCCN1CCCOc2ccc(cc2)CNc2nc(nc(OCC(F)(F)F)n2)Nc2ccc(cc2)C(=O)NCC(C)(C)C1` [Example 6039] was 0.1 to 100 nM.
Consider `O=C1NCCCCNCCCNc2nc(nc(OCC(F)(F)F)n2)Nc2ccc1cc2` [Example 7001], for which the EC50 under setting [3] is 1000 to 5000 nM.
As for `O=C1NCCCCCNCCNc2nc(nc(OCC(F)(F)F)n2)Nc2ccc1cc2` [Example 8002], the EC50 by setting is: under setting [3], 1000 to 5000 nM; under setting [4], over 50000 nM.
On the same counts, the results for `O=C1NCCCNCCCCCCCCNc2nc(nc(OCC(F)(F)F)n2)Nc2ccc1cc2` [Example 9001] are 100 to 1000 nM and 243 nM.
For `CC(C)(C)OC(=O)N1CCCCCCCCNc2nc(nc(OCC(F)(F)F)n2)Nc2ccc(cc2)C(=O)NCCC1` [Example 9002], under setting [3], the EC50 fell in the range of 0.1 to 100 nM.
